Data reported in ChEMBL document CHEMBL1275409, “Antimicrobial-resistant pathogens in intensive care units in Canada: results of the Canadian National Intensive Care Unit (CAN-ICU) study, 2005-2006” (2008).

Experiments:
Type in all cases: functional
Streptococcus pneumoniae [1] = assay: Antimicrobial activity against penicillin-resistant Streptococcus pneumoniae isolated from ICU patient wound assessed as resistant isolates by broth microdilution method
Escherichia coli [2] = assay: Antimicrobial activity against CTX-M ESBL producing Escherichia coli isolated from ICU patient urine assessed as resistant isolates by broth microdilution method
[3] = tested on: Staphylococcus epidermidis; assay: Antimicrobial activity against methicillin-resistant Staphylococcus epidermidis isolated from ICU patient urine assessed as resistant isolates by broth microdilution method
Haemophilus influenzae [4] = assay: Antimicrobial activity against Haemophilus influenzae isolated from ICU patient respiratory tract assessed as resistant isolates by broth microdilution method
Pseudomonas aeruginosa [5] = assay: Antimicrobial activity against carbapenem-resistant Pseudomonas aeruginosa isolated from ICU patient wound assessed as resistant isolates by broth microdilution method
Staphylococcus aureus [6] = assay: Antimicrobial activity against methicillin-susceptible Staphylococcus aureus isolated from ICU patient blood assessed as resistant isolates by broth microdilution method
[7] = tested on: Staphylococcus epidermidis; assay: Antimicrobial activity against methicillin-susceptible Staphylococcus epidermidis assessed as resistant isolates by broth microdilution method
[8] = tested on: Staphylococcus epidermidis; assay: Antimicrobial activity against methicillin-susceptible Staphylococcus epidermidis isolated from ICU patient wound assessed as resistant isolates by broth microdilution method
Klebsiella pneumoniae [9] = assay: Antimicrobial activity against ESBL producing Klebsiella pneumoniae isolated from ICU patient urine assessed as resistant isolates by broth microdilution method
Staphylococcus aureus [10] = assay: Antimicrobial activity against methicillin-resistant Staphylococcus aureus isolated from ICU patient urine assessed as resistant isolates by broth microdilution method
Klebsiella pneumoniae [11] = assay: Antimicrobial activity against ESBL producing Klebsiella pneumoniae isolated from ICU patient wound assessed as resistant isolates by broth microdilution method
[12] = tested on: Staphylococcus epidermidis; assay: Antimicrobial activity against methicillin-susceptible Staphylococcus epidermidis isolated from ICU patient blood assessed as resistant isolates by broth microdilution method
Escherichia coli [13] = assay: Antimicrobial activity against CTX-M ESBL producing Escherichia coli isolated from ICU patient respiratory tract assessed as resistant isolates by broth microdilution method
Staphylococcus aureus [14] = assay: Antimicrobial activity against methicillin-susceptible Staphylococcus aureus isolated from ICU patient urine assessed as resistant isolates by broth microdilution method
Staphylococcus aureus [15] = assay: Antimicrobial activity against methicillin-susceptible Staphylococcus aureus assessed as resistant isolates by broth microdilution method
Klebsiella pneumoniae [16] = assay: Antimicrobial activity against ESBL producing Klebsiella pneumoniae isolated from ICU patient respiratory tract assessed as resistant isolates by broth microdilution method
Staphylococcus aureus [17] = assay: Antimicrobial activity against methicillin-resistant Staphylococcus aureus isolated from ICU patient wound assessed as resistant isolates by broth microdilution method
Escherichia coli [18] = assay: Antimicrobial activity against CTX-M ESBL producing Escherichia coli isolated from ICU patient blood assessed as resistant isolates by broth microdilution method
Staphylococcus aureus [19] = assay: Antimicrobial activity against methicillin-susceptible Staphylococcus aureus isolated from ICU patient wound assessed as resistant isolates by broth microdilution method
Pseudomonas aeruginosa [20] = assay: Antimicrobial activity against carbapenem-resistant Pseudomonas aeruginosa assessed as resistant isolates by broth microdilution method
Staphylococcus aureus [21] = assay: Antimicrobial activity against methicillin-resistant Staphylococcus aureus assessed as resistant isolates by broth microdilution method
[22] = tested on: Staphylococcus epidermidis; assay: Antimicrobial activity against methicillin-susceptible Staphylococcus epidermidis isolated from ICU patient urine assessed as resistant isolates by broth microdilution method
[23] = tested on: Staphylococcus epidermidis; assay: Antimicrobial activity against methicillin-resistant Staphylococcus epidermidis isolated from ICU patient wound assessed as resistant isolates by broth microdilution method
Haemophilus influenzae [24] = assay: Antimicrobial activity against Haemophilus influenzae isolated from ICU patient blood assessed as resistant isolates by broth microdilution method
Staphylococcus aureus [25] = assay: Antimicrobial activity against methicillin-susceptible Staphylococcus aureus isolated from ICU patient respiratory tract assessed as resistant isolates by broth microdilution method
Klebsiella pneumoniae [26] = assay: Antimicrobial activity against ESBL producing Klebsiella pneumoniae isolated from ICU patient blood assessed as resistant isolates by broth microdilution method
Escherichia coli [27] = assay: Antimicrobial activity against CTX-M ESBL producing Escherichia coli assessed as resistant isolates by broth microdilution method
[28] = tested on: Staphylococcus epidermidis; assay: Antimicrobial activity against methicillin-resistant Staphylococcus epidermidis isolated from ICU patient blood assessed as resistant isolates by broth microdilution method
Haemophilus influenzae [29] = assay: Antimicrobial activity against Haemophilus influenzae assessed as resistant isolates by broth microdilution method
Streptococcus pneumoniae [30] = assay: Antimicrobial activity against penicillin-resistant Streptococcus pneumoniae assessed as resistant isolates by broth microdilution method
Streptococcus pneumoniae [31] = assay: Antimicrobial activity against penicillin-resistant Streptococcus pneumoniae isolated from ICU patient respiratory tract assessed as resistant isolates by broth microdilution method
Pseudomonas aeruginosa [32] = assay: Antimicrobial activity against carbapenem-resistant Pseudomonas aeruginosa isolated from ICU patient urine assessed as resistant isolates by broth microdilution method
Staphylococcus aureus [33] = assay: Antimicrobial activity against methicillin-resistant Staphylococcus aureus isolated from ICU patient blood assessed as resistant isolates by broth microdilution method
Streptococcus pneumoniae [34] = assay: Antimicrobial activity against penicillin-resistant Streptococcus pneumoniae isolated from ICU patient blood assessed as resistant isolates by broth microdilution method
Pseudomonas aeruginosa [35] = assay: Antimicrobial activity against carbapenem-resistant Pseudomonas aeruginosa isolated from ICU patient respiratory tract assessed as resistant isolates by broth microdilution method
[36] = tested on: Staphylococcus epidermidis; assay: Antimicrobial activity against methicillin-susceptible Staphylococcus epidermidis isolated from ICU patient respiratory tract assessed as resistant isolates by broth microdilution method
Staphylococcus aureus [37] = assay: Antimicrobial activity against methicillin-resistant Staphylococcus aureus isolated from ICU patient respiratory tract assessed as resistant isolates by broth microdilution method
Pseudomonas aeruginosa [38] = assay: Antimicrobial activity against carbapenem-resistant Pseudomonas aeruginosa isolated from ICU patient blood assessed as resistant isolates by broth microdilution method
Haemophilus influenzae [39] = assay: Antimicrobial activity against Haemophilus influenzae isolated from ICU patient wound assessed as resistant isolates by broth microdilution method
Klebsiella pneumoniae [40] = assay: Antimicrobial activity against ESBL producing Klebsiella pneumoniae assessed as resistant isolates by broth microdilution method
[41] = tested on: Staphylococcus epidermidis; assay: Antimicrobial activity against methicillin-resistant Staphylococcus epidermidis assessed as resistant isolates by broth microdilution method
Enterobacter cloacae [42] = assay: Antimicrobial activity against carbapenem-resistant Enterobacter cloacae isolated from ICU patient urine assessed as resistant isolates by broth microdilution method
Escherichia coli [43] = assay: Antimicrobial activity against CTX-M ESBL producing Escherichia coli isolated from ICU patient wound assessed as resistant isolates by broth microdilution method
Enterobacter cloacae [44] = assay: Antimicrobial activity against carbapenem-resistant Enterobacter cloacae assessed as resistant isolates by broth microdilution method
Enterobacter cloacae [45] = assay: Antimicrobial activity against carbapenem-resistant Enterobacter cloacae isolated from ICU patient wound assessed as resistant isolates by broth microdilution method
Enterobacter cloacae [46] = assay: Antimicrobial activity against carbapenem-resistant Enterobacter cloacae isolated from ICU patient respiratory tract assessed as resistant isolates by broth microdilution method
Enterobacter cloacae [47] = assay: Antimicrobial activity against carbapenem-resistant Enterobacter cloacae isolated from ICU patient blood assessed as resistant isolates by broth microdilution method

Question: How did the Activity (Streptococcus pneumoniae [1]) turn out when `CO/N=C(\C(=O)N[C@@H]1C(=O)N2C(C(=O)[O-])=C(C[N+]3(C)CCCC3)CS[C@H]12)c1csc(N)n1` was run?
Answer: 0%

Question: What about the Activity (Escherichia coli [2]) of the same compound?
Answer: 0.4%

Question: And the Activity [3]?
Answer: 100%

Question: And the Activity (Haemophilus influenzae [4])?
Answer: 0%

Question: And the Activity (Pseudomonas aeruginosa [5])?
Answer: 0%

Question: What about the Activity (Staphylococcus aureus [6]) of the same compound?
Answer: 0%

Question: And the Activity [7]?
Answer: 16.3%

Question: What about the Activity [8] of the same compound?
Answer: 33.3%

Question: And the Activity (Klebsiella pneumoniae [9])?
Answer: 17.8%

Question: And the Activity (Staphylococcus aureus [10])?
Answer: 100%

Question: And the Activity (Klebsiella pneumoniae [11])?
Answer: 18.9%

Question: And the Activity [12]?
Answer: 8.9%

Question: And the Activity (Escherichia coli [13])?
Answer: 0.8%

Question: And the Activity (Staphylococcus aureus [14])?
Answer: 0%

Question: What about the Activity (Staphylococcus aureus [15]) of the same compound?
Answer: 0%

Question: What about the Activity (Klebsiella pneumoniae [16]) of the same compound?
Answer: 7.6%

Question: And the Activity (Staphylococcus aureus [17])?
Answer: 100%

Question: What about the Activity (Escherichia coli [18]) of the same compound?
Answer: 1.4%

Question: And the Activity (Staphylococcus aureus [19])?
Answer: 0%

Question: What about the Activity (Pseudomonas aeruginosa [20]) of the same compound?
Answer: 0%

Question: What about the Activity (Staphylococcus aureus [21]) of the same compound?
Answer: 100%

Question: What about the Activity [22] of the same compound?
Answer: 20%

Question: And the Activity [23]?
Answer: 100%

Question: What about the Activity (Haemophilus influenzae [24]) of the same compound?
Answer: 0%

Question: And the Activity (Staphylococcus aureus [25])?
Answer: 0%

Question: And the Activity (Klebsiella pneumoniae [26])?
Answer: 9.1%

Question: What about the Activity (Escherichia coli [27]) of the same compound?
Answer: 0.7%

Question: What about the Activity [28] of the same compound?
Answer: 100%

Question: And the Activity (Haemophilus influenzae [29])?
Answer: 0%

Question: And the Activity (Streptococcus pneumoniae [30])?
Answer: 0%

Question: And the Activity (Streptococcus pneumoniae [31])?
Answer: 0%

Question: What about the Activity (Pseudomonas aeruginosa [32]) of the same compound?
Answer: 0%

Question: And the Activity (Staphylococcus aureus [33])?
Answer: 100%

Question: What about the Activity (Streptococcus pneumoniae [34]) of the same compound?
Answer: 0%

Question: What about the Activity (Pseudomonas aeruginosa [35]) of the same compound?
Answer: 0%

Question: And the Activity [36]?
Answer: 0%

Question: What about the Activity (Staphylococcus aureus [37]) of the same compound?
Answer: 100%

Question: And the Activity (Pseudomonas aeruginosa [38])?
Answer: 0%

Question: And the Activity (Haemophilus influenzae [39])?
Answer: 0%

Question: What about the Activity (Klebsiella pneumoniae [40]) of the same compound?
Answer: 10.2%

Question: And the Activity [41]?
Answer: 100%

Question: With `NCC[C@H](O)C(=O)N[C@@H]1C[C@H](N)[C@@H](O[C@H]2O[C@H](CN)[C@@H](O)[C@H](O)[C@H]2O)[C@H](O)[C@H]1O[C@H]1O[C@H](CO)[C@@H](O)[C@H](N)[C@H]1O` [AMIKACIN] as the compound, how does the Activity (Enterobacter cloacae [42]) read?
Answer: 0%

Question: And the Activity (Escherichia coli [2])?
Answer: 0%

Question: And the Activity (Escherichia coli [43])?
Answer: 0%

Question: And the Activity (Enterobacter cloacae [44])?
Answer: 0%

Question: What about the Activity (Pseudomonas aeruginosa [5]) of the same compound?
Answer: 0%

Question: And the Activity (Klebsiella pneumoniae [9])?
Answer: 6.7%

Question: What about the Activity (Klebsiella pneumoniae [11]) of the same compound?
Answer: 1.9%

Question: And the Activity (Enterobacter cloacae [45])?
Answer: 0%

Question: What about the Activity (Escherichia coli [13]) of the same compound?
Answer: 0%

Question: And the Activity (Enterobacter cloacae [46])?
Answer: 0%

Question: What about the Activity (Klebsiella pneumoniae [16]) of the same compound?
Answer: 2.4%

Question: What about the Activity (Escherichia coli [18]) of the same compound?
Answer: 0%

Question: And the Activity (Pseudomonas aeruginosa [20])?
Answer: 0%

Question: What about the Activity (Klebsiella pneumoniae [26]) of the same compound?
Answer: 0%

Question: What about the Activity (Escherichia coli [27]) of the same compound?
Answer: 0%

Question: What about the Activity (Pseudomonas aeruginosa [32]) of the same compound?
Answer: 0%

Question: And the Activity (Pseudomonas aeruginosa [35])?
Answer: 0%

Question: What about the Activity (Enterobacter cloacae [47]) of the same compound?
Answer: 0%

Question: And the Activity (Pseudomonas aeruginosa [38])?
Answer: 0%

Question: And the Activity (Klebsiella pneumoniae [40])?
Answer: 2.6%
